Source: US8329645B2, “Polymyxin derivatives and uses thereof” (priority 2008, dated 2012)
“And” between values parts separate entries of the source, which are not always exact repeats. Identical values can stand only once.

How the values were obtained:
K. pneumoniae ATCC13883 [1] = details: K. pneumoniae ATCC13883
Protocol: (§1) MICs were determined by using E-strips (Biodisk Ltd., Solna, Sweden) according to the manufacturer's instructions.
(§2) The strains originated from ATCC (11 strains), CCUG (11 strains), and NCTC (The National Collection of Type Cultures, Colindale, U.K.; 2 strains). Eight strains (the F-strains) were purchased from Mobidiag Ltd., Helsinki, Finland.

E. coli ATCC25922 [2] = details: E. coli ATCC25922
Protocol: as §1, §2

E. coli IH3080 (K1:O18) = experiment: Experimental E. coli peritonitis model in mice (Example 12); format: in vivo
Protocol: A suspension of E. coli IH3080 (K1:O18) in saline (0.9% NaCl) was prepared from an overnight culture on a blood agar plate (Statens Serum Institut, Copenhagen, Denmark). All mice (female NMR1 from Harlan Scandinavia, Allerød, Denmark; weight, 25-30 g) were inoculated intraperitoneally with 0.5 ml of the suspension containing 0.96×10^6 CFU per ml in the lateral lower quadrant of the abdomen. At 1 h, the CFU count was determined from three mice and the remaining mice (four mice per group) were treated with a subcutaneous injection of 0.2 ml of erythromycin solution in saline (corresponding to 5 mg/kg body weight) or NAB7061 solution in saline (corresponding to 5 mg/kg body weight), or both erythromycin and NAB7061 (corresponding to 5 mg/kg body weight of both drugs; given at two separate sites). Control group received two 0.2 ml injections of saline. At 4.5 h postinfection, all mice were anaesthetized with CO2 and sacrificed. Sterile saline (2 ml) was injected intraperitoneally and the abdomen was gently massaged before it was opened and the fluid sampled. Appropriate dilutions of the fluid were plated on blood agar plates, the plates were incubated overnight, and the colonies were counted.

E. coli IH3080 [3] = experiment: E-test MIC with or without NAB7061 (4 μg/ml), Mueller-Hinton agar; format: cell-based, Escherichia coli
Protocol: as §1, §2

E. cloacae ATCC23355 [4] = experiment: as above; format: cell-based, Enterobacter cloacae
Protocol: as §1, §2

[5] = tested on: E. coli (ATCC25922 and IH3080), K. pneumoniae ATCC13883, and E. cloacae ATCC23355; experiment: E-test sensitization by NAB7061, range over the tested strains; format: cell-based; details: four tested strains
Protocol: as §1

K. pneumoniae ATCC13883 [6] = experiment: Growth inhibition around wells on LB agar plates; format: cell-based, Klebsiella pneumoniae
Protocol: (§3) From an overnight-grown culture of IH3080 on LB agar, a suspension of approx. 10^8 cells/ml was prepared in 0.9% NaCl. Aliquots of this suspension were then pipetted on the agar plates and the plates were gently shaken to spread the suspension evenly on the entire surface of the plate. Thereafter, the unabsorbed part of the suspension was removed by using a Pasteur pipette. After the surface had dried, small wells (diameter, 2 mm) were drilled on the plates (five wells per plate) by using a sterile sharp-edged narrow metal tube, single-use pipette tip, and vacuum suction. An alternative method used a swab to spread the inoculum. Samples (4 μl and 10 μl) of the peptide solution in 0.9% NaCl (at concentrations of 1 μg/ml and 0.1 μg/ml) were then pipetted to the wells and the sample fluids were allowed to absorb. Controls included 0.9% NaCl solution without the compound to be tested. The plates were then incubated for 18 h at 37° C. whereafter the diameters of growth inhibition zones around each well were measured; the diameter of the well itself was not reduced. Finally, the diameters were converted to surface areas of growth inhibition (in square mm).
(§4) The susceptibility of eleven Gram-negative bacterial strains (nine different species) to NAB734 and polymyxin B was compared by using the susceptibility determination method described in Example 2. The strains included those belonging to the species of Serratia marcescens and Proteus mirabilis, both species generally known to be resistant to polymyxin. Furthermore, the susceptibility determination was also performed by using the Gram-positive bacterium, Staphylococcus aureus, also generally known to be polymyxin-resistant. Ten of the strains originated from ATCC (American Type Culture Collection, Manassas, Va., U.S.A.), and one from CCUG (Culture Collection of University of Gothenburg, Sweden). The source of E. coli IH3080 has been described in Example 2. Polymyxin B sulfate was from Sigma-Aldrich (St. Louis, Mo., USA).

K. pneumoniae CCUG45421 = experiment: Growth inhibition around wells on LB agar plates; format: cell-based, Klebsiella pneumoniae
Protocol: as §3, §4

E. coli ATCC25922 [7] = experiment: Growth inhibition around wells on LB agar plates; format: cell-based, Escherichia coli
Protocol: as §3, §4

A. baumannii ATCC 19606 = experiment: Sensitization to rifampin: growth inhibition around wells on LB plates containing rifampin; format: cell-based, Acinetobacter baumannii; details: 4 μg
S. marcescens ATCC8100 = experiment: Growth inhibition around wells on LB agar plates; format: cell-based, Serratia marcescens
Protocol: as §3, §4

E. coli IH3080 [8] = experiment: Sensitization to rifampin: growth inhibition around wells on LB plates containing rifampin; format: cell-based, Escherichia coli; details: 4 μg of compound
S. aureus ATCC 25923 = experiment: Growth inhibition around wells on LB agar plates; format: cell-based, Staphylococcus aureus
Protocol: as §3, §4

K. oxytoca ATCC13182 = experiment: Growth inhibition around wells on LB agar plates; format: cell-based, Klebsiella oxytoca
Protocol: as §3, §4

C. freundii ATCC8090 = experiment: Growth inhibition around wells on LB agar plates; format: cell-based, Citrobacter freundii
Protocol: as §3, §4

E. coli IH3080 [9] = experiment: Growth inhibition around wells on LB agar plates; format: cell-based, Escherichia coli; details: 10 μg of compound per well
In short: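 Growth inhibition of encapsulated E. coli IH3080 (K1:O018) was assessed on LB agar plates. A suspension of about 10^8 cells/ml in 0.9% NaCl, made from an overnight LB agar culture, was spread across the plate surface and the excess removed. After drying, 2 mm wells were drilled, with 0.9% NaCl as control. Following 18 h at 37° C., inhibition zone diameters around wells were converted to areas in square mm.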

[10] = tested on: Ps. aeruginosa ATCC 27853; experiment: Sensitization to rifampin: growth inhibition around wells on LB plates containing rifampin; format: cell-based, Pseudomonas aeruginosa; details: 4 μg
P. mirabilis ATCC29906 = experiment: Growth inhibition around wells on LB agar plates; format: cell-based, Proteus mirabilis
Protocol: as §3, §4

E. cloacae ATCC23355 [11] = experiment: Growth inhibition around wells on LB agar plates; format: cell-based, Enterobacter cloacae
Protocol: as §3, §4

[12] = tested on: Acinetobacter baumannii ATCC 19606; experiment: Growth inhibition around wells on LB agar plates; format: cell-based; details: A. baumannii ATCC 19606
[13] = tested on: Pseudomonas aeruginosa ATCC 27853; experiment: Growth inhibition around wells on LB agar plates; format: cell-based; details: Ps. aeruginosa ATCC 27853
In short: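 Activity against Pseudomonas aeruginosa ATCC 27853 was assessed by agar well diffusion on LB plates. A suspension of about 10^8 cells/ml in 0.9% NaCl was spread over the agar and the excess removed. Once the surface had dried, 2 mm wells were drilled and filled with peptide dissolved in 0.9% NaCl. Plates were incubated 18 h at 37° C, and inhibition zone diameters were converted to areas in square mm.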

CC[C@H]1OC(=O)[C@H](C)[C@@H](O[C@H]2C[C@@](C)(OC)[C@@H](O)[C@H](C)O2)[C@H](C)[C@@H](O[C@@H]2O[C@H](C)C[C@H](N(C)C)[C@H]2O)[C@](C)(O)C[C@@H](C)C(=O)[C@H](C)[C@@H](O)[C@]1(C)O [Erythromycin] was tested, and the “Sensitization factor to antibiotic (MIC without / with 4 μg/ml of NAB 7061)” value (K. pneumoniae ATCC13883 [1]) was 24-48, the “Sensitization factor to antibiotic (MIC without / with 4 μg/ml of NAB 7061)” value (E. coli ATCC25922 [2]) was 32-48 and the “CFU counts in peritoneal fluid” value (E. coli IH3080 (K1:O18); 4.5 h postinfection ([…] after treatment), 5 mg/kg subcutaneous) was 8.9 (±6.4)×10^6 per ml. The “factor by which the bacterial count increased” value (E. coli IH3080 (K1:O18); from 1 h to 4.5 h postinfection) was 12, the “Sensitization factor to antibiotic (MIC without / with 4 μg/ml of NAB 7061)” value (E. coli IH3080 [3]) was 32-42 and the “Sensitization factor to antibiotic (MIC without / with 4 μg/ml of NAB 7061)” value (E. cloacae ATCC23355 [4]) was 21-43. The “Sensitization factor to antibiotic at 4 μg/ml of NAB7061, range over the tested strains” value [5] was 21-48.
In the case of “OA-Thr-DSer-cy[Dab-Dab-DPhe-Thr-Dab-Dab-Thr-] [NAB 734]”, the “growth inhibition around a well” value (K. pneumoniae ATCC13883 [6]; 4 μg) is reported as 64 square millimeters, the “growth inhibition around a well” value (K. pneumoniae ATCC13883 [6]; 10 μg) is reported as 113 square millimeters and the “growth inhibition around a well” value (K. pneumoniae CCUG45421; 4 μg) is reported as 64 square millimeters. The “growth inhibition around a well” value (K. pneumoniae CCUG45421; 10 μg) was 104 square millimeters, the “growth inhibition around a well” value (E. coli ATCC25922 [7]; 4 μg) was 133 square millimeters and the “growth inhibition around a well” value (E. coli ATCC25922 [7]; 10 μg) was 177 square millimeters. For the same molecule, the “growth inhibition around a well in the presence of rifampin” value (A. baumannii ATCC 19606; rifampin 0 μg/ml) was 38 square millimeters, the “growth inhibition around a well in the presence of rifampin” value (A. baumannii ATCC 19606; rifampin 0.1 μg/ml) was 201 square millimeters and the “growth inhibition around a well in the presence of rifampin” value (A. baumannii ATCC 19606; rifampin 0.3 μg/ml) was 283 square millimeters. For the same molecule, the “growth inhibition around a well” value (S. marcescens ATCC8100; 4 μg) was 0 square millimeters, the “growth inhibition around a well” value (S. marcescens ATCC8100; 10 μg) was 0 square millimeters and the “growth inhibition around a well in the presence of rifampin” value (E. coli IH3080 [8]; rifampin 0 μg/ml) was 113 square millimeters. The “growth inhibition around a well in the presence of rifampin” value (E. coli IH3080 [8]; rifampin 0.1 μg/ml) was 154 square millimeters, the “growth inhibition around a well in the presence of rifampin” value (E. coli IH3080 [8]; rifampin 1.0 μg/ml) was 201 square millimeters and the “growth inhibition around a well” value (S. aureus ATCC 25923; 4 μg) was 0 square millimeters. For the same molecule, the “growth inhibition around a well” value (S. aureus ATCC 25923; 10 μg) was 0 square millimeters, the “growth inhibition around a well” value (K. oxytoca ATCC13182; 4 μg) was 95 square millimeters and the “growth inhibition around a well” value (K. oxytoca ATCC13182; 10 μg) was 143 square millimeters. The “growth inhibition around a well” value (C. freundii ATCC8090; 4 μg) was 133 square millimeters, the “growth inhibition around a well” value (C. freundii ATCC8090; 10 μg) was 177 square millimeters and the “growth inhibition around a well” value (E. coli IH3080 [9]) was 177 square millimeters. For the same molecule, the “growth inhibition around a well in the presence of rifampin” value ([10]; rifampin 0 μg/ml) was 13 square millimeters, the “growth inhibition around a well in the presence of rifampin” value ([10]; rifampin 0.3 μg/ml) was 20 square millimeters and the “growth inhibition around a well” value (P. mirabilis ATCC29906; 4 μg) was 0 square millimeters. For the same molecule, the “growth inhibition around a well” value (P. mirabilis ATCC29906; 10 μg) was 0 square millimeters, the “growth inhibition around a well” value (E. cloacae ATCC23355 [11]; 4 μg) was 133 square millimeters and the “growth inhibition around a well” value (E. cloacae ATCC23355 [11]; 10 μg) was 177 square millimeters. For the same molecule, the “growth inhibition around a well” value ([12]; 4 μg) was 38 square millimeters and 57 square millimeters, the “growth inhibition around a well” value ([12]; 10 μg) was 95 square millimeters and 79 square millimeters and the “growth inhibition around a well” value ([13]; 4 μg) was 13 square millimeters. The “growth inhibition around a well” value ([13]; 10 μg) was 50 square millimeters.
